Source: patent US11078183B2, “Tetrahydrate of H3 ligand, its process of preparation and pharmaceutical compositions comprising the same” (BIOPROJET, priority 2017, dated 2021)
Where a name gives a salt, the structure may show the parent alone. Read-outs that look alike come from different tables or passages of the source.

How the values were obtained:
[1] = Stability studies according to ICH (purity on anhydrous substance over time); assay type: physicochemical; details: for purity on anhydrous substance: specifications 98.0-102.0%; for degradation observed (in words): up to 6 months
Protocol: Stability studies have been performed according to ICH.
Similar results were obtained for the 3 months sample at 30° C./65% relative humidity:
Stability has been assessed under ICH conditions.

[2] = Degradation on drying (main impurity over drying time); assay type: physicochemical
[3] = as above; assay type: physicochemical; details: for Main impurity: drying at 60° C.
Protocol: Drying was not complete at 60° C. over 24 hours.

[4] = Hygroscopy: water content over storage time; assay type: physicochemical
From the text: This compound is hygroscopic. It uptakes water during time.

histamine H3 = histamine H3 (Homo sapiens, UniProt Q9Y5N1); details: among the H3 ligands disclosed in WO 2006/117609; cited from earlier work
histamine H3, sequence (Q9Y5N1 whole entry): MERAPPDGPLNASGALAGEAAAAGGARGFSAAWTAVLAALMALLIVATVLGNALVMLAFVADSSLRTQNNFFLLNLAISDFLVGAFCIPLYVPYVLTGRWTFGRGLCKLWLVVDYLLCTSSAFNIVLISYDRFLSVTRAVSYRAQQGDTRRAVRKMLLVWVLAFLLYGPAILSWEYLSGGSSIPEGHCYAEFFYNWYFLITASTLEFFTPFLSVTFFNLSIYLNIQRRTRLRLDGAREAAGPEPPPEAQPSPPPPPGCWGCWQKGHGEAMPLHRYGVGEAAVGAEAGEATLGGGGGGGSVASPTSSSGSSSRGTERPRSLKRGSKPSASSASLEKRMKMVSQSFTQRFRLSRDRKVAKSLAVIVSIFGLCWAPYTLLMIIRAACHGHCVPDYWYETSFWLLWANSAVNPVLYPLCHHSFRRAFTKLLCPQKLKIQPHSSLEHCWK

[5] = 40° C./75% relative humidity, 0 months
[6] = 40° C./75% relative humidity, 1 month
[7] = 40° C./75% relative humidity, 3 months
[8] = 40° C./75% relative humidity, 6 months

C[C@H]1CCCN(CCCOc2ccc(-c3cc[n+]([O-])cc3)cc2)C1 [Example 52 of WO 2006/117609, (3S)-4-{4-[3-(3-methylpiperidin-1-yl)propoxy]phenyl}pyridine 1-oxide, dihydrochloride]
purity on anhydrous substance ([1]; 30° C./65% relative humidity, 0 months): 100.2 | purity on anhydrous substance ([1]; 30° C./65% relative humidity, 3 months): 98.4 | purity on anhydrous substance ([1]; 40° C./75% relative humidity, 0 months, dihydrochloride): 100.2 | purity on anhydrous substance ([1]; 40° C./75% relative humidity, 1 month, dihydrochloride): 100.8 | purity on anhydrous substance ([1]; 40° C./75% relative humidity, 3 months, dihydrochloride): 98.2 | purity on anhydrous substance ([1]; 40° C./75% relative humidity, 6 months, dihydrochloride): 98.4 | degradation observed (in words) ([1]; 40° C./75% relative humidity, dihydrochloride): some degradation is observed | loss of purity ([1]; within six months, 40° C./75% relative humidity): 2% | outcome of drying (in words) ([2]; drying at 80° C. or 100° C., complete removal of water): some decomposition occurred | Main impurity ([2]; drying at 80° C., 0 hr): 0.08% | Main impurity ([2]; drying at 80° C., 8 hr): 0.11% | Main impurity ([2]; drying at 80° C., 16 hr): 0.12% | Main impurity ([2]; drying at 80° C., 24 hr): 0.14% | Main impurity ([2]; drying at 100° C., 0 hr): 0.08% | Main impurity ([2]; drying at 100° C., 8 hr): 0.32% | Main impurity ([2]; drying at 100° C., 16 hr): 0.44% | completeness of drying (in words) ([3]; drying at 60° C. over 24 hours): not complete | Main impurity ([3]; 0 hr): 0.08% | Main impurity ([3]; 8 hr): 0.08% | Main impurity ([3]; 12 hr): 0.08% | Main impurity ([3]; 24 hr): 0.10% | water content ([4]; batch stored under Good Manufacturing Practice, 0 months): 1 % in weight | water content ([4]; batch stored under Good Manufacturing Practice, 6 months): 2 % in weight | water content ([4]; batch stored under Good Manufacturing Practice, 11 months): 4 % in weight | hygroscopicity (in words) ([4]; dihydrochloride): hygroscopic | hygroscopicity (in words) ([4]; listed as dihydrochloride salt, dihydrochloride): too hygroscopic

C[C@H]1CCCN(CCCOc2ccc(-c3cc[n+]([O-])cc3)cc2)C1 [(3S)-4-{4-[3-(3-methylpiperidin-1-yl)propoxy]phenyl}pyridine 1-oxide]
potency as H3 ligand (in words) (histamine H3): very potent

C[C@H]1CCCN(CCCOc2ccc(-c3cc[n+]([O-])cc3)cc2)C1 [Example 1, (3S)-4-{4-[3-(3-methylpiperidin-1-yl)propoxy]phenyl}pyridine 1-oxide, dihydrochloride, tetrahydrate]
purity on anhydrous substance [1, 5]: 99.6 | purity on anhydrous substance [1, 6]: 100.3 | purity on anhydrous substance [1, 7]: 99.7 | purity on anhydrous substance [1, 8]: 100.3 | degradation observed (in words) ([1]; 40° C./75% relative humidity): no degradation is observed | hygroscopicity (in words) [4]: not hygroscopic | water content [4, 5]: 16 % in weight | water content [4, 6]: 16 % in weight | water content [4, 7]: 15 % in weight | water content [4, 8]: 16 % in weight | water content ([4]; 40° C./75% relative humidity, 12 months): 15 % in weight | water content modification (in words) ([4]; 40° C./75% relative humidity, up to 12 months): no water content modification is observed
